{
  "source": "patent US11331364B2",
  "about": "“Use for JNK inhibitor molecules for treatment of various diseases” (Xigen Inflammation Ltd., priority 2014, dated 2022)",
  "key": {"[1]": {"test_system": "established type II collagen arthritis in rats", "assay": "Chronic established type II collagen arthritis, daily IV 14 days", "assay_type": "in vivo, rat", "description": "Rat collagen arthritis is an experimental model of polyarthritis that has been widely used for preclinical testing of numerous anti-arthritic agents that are either under preclinical or clinical investigation or are currently used as therapeutics in this disease. […] Animals were terminated on arthritis day 14."}, "[2]": {"test_system": "primary mouse cortical neuron cultures", "assay": "Neuronal apoptosis after Aβ42 stress in WT primary cortical neurons (cleaved PARP, caspase 3)", "assay_type": "cell-based", "description": "To this end, primary mouse cortical neuron cultures were exposed to either 2 μM or 25 μM of β-amyloid 1-42 (Aβ42) for 5 hours to induce Aβ42 cell stress. […] Levels of phosphorylated JNK (pJNK), total JNK (JNK), cleaved PARP and Tubulin (control) were determined. The ratio of pJNK/JNK served as a measure of JNK activity. The level of cleaved protein PARP, which is known to increase during apoptosis, served as a measure of neuronal apoptosis.\nTo obtain primary cortical neuronal cultures, E15.5 mice embryos were dissected in PBS (Phosphate Buffered Saline) 6% glucose, on ice. Embryos cortices were minced into small pieces and treated with PBS glucose trypsin (Sigma Aldrich, Saint-Louis, USA) for 20 min at 37° C. Dissociated cortical cells were cultured in Neurobasal media complemented with B27, Glutamax and penicillin-streptomycin (Gibco). Neurons were cultured at 37° C., 5% CO2 on pre-coated with poly-L-lysin (Sigma Aldrich) petri dishes. Neurons were cultured to maturity (7 days) before use.\nTo induce […] stress 2 μM of Aβ1-42 (Thermo Fisher Scientific, Mass., USA) were used during 5 h on cortical neurons. Aβ42-1 inversed peptide (Thermo Fisher Scientific) was used as negative control. AP 1-42 and Aβ42-1 were dissolved in pure water and incubated at 37° C. for 48 h before use. […]\nFor immunoblot analysis cells were lysed on ice in a lysis buffer containing […] NaPi pH 7.8, […] NaCl, 1% Triton, 0.5% DOC, 0.1% SDS, 10% glycerol, 0.1 μM calyculin A, 1 mM Na3VO4 and 1× of a protease inhibitor cocktail (Sigma Aldrich). Lysates were sonicated and centrifugated 10 min at 15000 g at 4° C. The supernatant protein concentration was determined with the Micro BCA protein assay kit (Thermo Scientific). Thirty micrograms of proteins were resolved on SDS-PAGE and transferred onto nitrocellulose membrane. After blocking with TBS 5% skim milk, the membranes were probed with primary antibodies to JNK full, c-Jun, PKR, eIF2α (Santa Cruz, Danvers, USA), pJNK (Millipore, Billerica, USA), phosphor eIF2a (Thermo Fisher Scientific), PARP and tubulin (Cell Signaling, Danvers, USA). IR Dyes 800 and 700 (Rockland Immunochemical Inc, Gilbertsville, USA) antibodies were used as secondary antibodies. Blots were reveled with Odyssey imaging system (LI-COR Biosciences, Lincoln, USA).\nFor caspase 3 activity analysis culture cell supernatants containing degenerating and dead neurons, and cell medium were collected in parallel of adhesive neurons lysis. Culture cell supernatants were centrifugated 10 min at 15000 g at 4° C. Pellets were then resuspended in lysis buffer and caspase 3 activity was measured by using the Caspase 3 Assay kit reagents and protocol (Abcam, Cambridge, UK)."}, "[3]": {"details": "vs disease controls, IV QD d1-14, Dex 0.05 mg/kg, SEQ ID NO: 172 up to 5 mg/kg"}, "[4]": {"details": "WT neurons, 10 μM, vs Aβ42 treated WT neurons"}},
  "note": "Square brackets hold non-standard residues; d marks the D form. Peptide text beside a SMILES is read from it.",
  "data": [
    {"smiles": "CC(C)C[C@H](NC(=O)[C@H](CC(N)=O)NC(=O)[C@H](CC(C)C)NC(=O)[C@@H](NC(=O)[C@@H](C)NC(=O)[C@@H]1CCCN1C(=O)[C@H](CCCNC(=N)N)NC(=O)[C@@H](CCCCN)NC(=O)[C@@H]1CCCN1C(=O)[C@H](CCCNC(=N)N)NC(=O)[C@@H](CCCNC(=N)N)NC(=O)[C@H](CCCNC(=N)N)NC(=O)[C@H](CCCNC(=N)N)NC(=O)[C@H](CCC(N)=O)NC(=O)[C@@H](CCCNC(=N)N)NC(=O)[C@H](CCCNC(=N)N)NC(=O)[C@H](CCCCN)NC(=O)[C@H](CCCCN)NC(=O)[C@H](N)CCCNC(=N)N)[C@@H](C)O)C(=O)N[C@H](Cc1ccccc1)C(N)=O", "note": "[SEQ ID NO: 172, rKKRrQRRrRPkRPaTLNLf] (H-[dR]KKR[dR]QRR[dR]RP[dK]RP[dA]TLNL[dF]-NH2; N-terminus assumed)", "values": [
      {"measurement": "ankle diameter AUC, reduction toward normal", "setting": "[1]; 1 mg/kg IV QD d1-14", "result": 27, "unit": "%"},
      {"measurement": "inhibition of body weight loss vs disease controls", "setting": "[1]; 1 mg/kg IV QD d1-14", "result": 21, "unit": "%"},
      {"measurement": "ankle diameter AUC, reduction toward normal", "setting": "[1]; 5 mg/kg IV QD d1-14", "result": 43, "unit": "%"},
      {"measurement": "ankle histopathology, reduction of summed scores", "setting": "[1]; 5 mg/kg IV QD d1-14", "result": 25, "unit": "%"},
      {"measurement": "final paw weights, reduction toward normal", "setting": "[1]; 5 mg/kg IV QD d1-14", "result": 26, "unit": "%"},
      {"measurement": "inhibition of body weight loss vs disease controls", "setting": "[1]; 5 mg/kg IV QD d1-14", "result": 25, "unit": "%"},
      {"measurement": "knee histopathology, reduction of summed scores", "setting": "[1]; 5 mg/kg IV QD d1-14", "result": 73, "unit": "%"},
      {"measurement": "daily ankle diameter measurements", "setting": "[1]; 5 mg/kg IV QD, p<0.05 days 4-12", "result": "reduced toward normal"},
      {"measurement": "effect on organ weights", "setting": "[1]; IV QD d1-14", "result": "no adverse effect on organ weights"},
      {"measurement": "spleen weights relative to body weight", "setting": "[1]; [3]", "result": "not significantly affected"},
      {"measurement": "thymus weights relative to body weight", "setting": "[1]; [3]", "result": "not significantly affected"},
      {"measurement": "decrease of PARP cleavage", "setting": "[2]; 2 μM Aβ42, 5 μM pre-treatment", "result": 46.8, "unit": "%"},
      {"measurement": "decrease of PARP cleavage", "setting": "[2]; 2 μM Aβ42, 10 μM pre-treatment", "result": 80.2, "unit": "%"},
      {"measurement": "decrease of PARP cleavage", "setting": "[2]; 25 μM Aβ42, 5 μM pre-treatment", "result": 69, "unit": "%"},
      {"measurement": "decrease of PARP cleavage", "setting": "[2]; 25 μM Aβ42, 10 μM pre-treatment", "result": 80.6, "unit": "%"},
      {"measurement": "efficiency to reduce apoptosis, 10 μM relative to 5 μM", "setting": "[2]; Aβ42-induced apoptosis", "result": 1.7},
      {"measurement": "decrease of caspase 3 activity", "setting": "[2]; [4]", "result": 78, "unit": "%"},
      {"measurement": "decrease of cleaved PARP expression level", "setting": "[2]; [4]", "result": 77, "unit": "%"},
      {"measurement": "reduction of cleaved caspase 3 expression level", "setting": "[2]; [4]", "result": 61, "unit": "%"}
    ]}
  ]
}
